Assays:
Type in all cases: physicochemical
[1] = Tapped bulk density of the powder
[2] = Average diameter of agglomerates; settings: agglomerates as obtained after drying
[3] = Loose bulk density of the powder
[4] = Compressibility of the powder
[5] = Particle size distribution
[6] = Table 1, agglomerated vs needle form
[7] = agitator 3000 RPM, 0.9 mm nozzle
[8] = High flow (solution 15 l/h, acetone 312 l/h)
[9] = Low flow (flows decreased by a factor 2)

O=C(O)[C@H]1/C(=C/CO)O[C@@H]2CC(=O)N21 [Agglomerates of potassium clavulanate, potassium clavulanate]
Tapped bulk density [1, 6]: 0.68 g/mL
average diameter ([2]; listed as Example 8): 40-200 μm
Loose bulk density [3, 6]: 0.49 g/mL
Compressibility [4, 6]: 28%

O=C(O)[C@H]1/C(=C/CO)O[C@@H]2CC(=O)N21 [Example 1, potassium clavulanate]
average diameter [2]: 100-1000 μm

O=C(O)[C@H]1/C(=C/CO)O[C@@H]2CC(=O)N21 [Example 2, potassium clavulanate]
average diameter [2]: 500-1500 μm

O=C(O)[C@H]1/C(=C/CO)O[C@@H]2CC(=O)N21 [Example 3, potassium clavulanate]
average diameter [2]: 1000 μm

O=C(O)[C@H]1/C(=C/CO)O[C@@H]2CC(=O)N21 [Example 4, potassium clavulanate]
average diameter [2]: 500-1000 μm

O=C(O)[C@H]1/C(=C/CO)O[C@@H]2CC(=O)N21 [Example 5, potassium clavulanate]
average diameter [2]: 50-250 μm

O=C(O)[C@H]1/C(=C/CO)O[C@@H]2CC(=O)N21 [Example 6, potassium clavulanate]
average diameter [2]: 10-200 μm

O=C(O)[C@H]1/C(=C/CO)O[C@@H]2CC(=O)N21 [Example 7, potassium clavulanate]
average diameter [2]: 500-1500 μm

O=C(O)[C@H]1/C(=C/CO)O[C@@H]2CC(=O)N21 [Example 9, potassium clavulanate]
particle size distribution 75-150 μm ([5]; Table 2, 3000 RPM): 43.3 volume %
particle size distribution 150-250 μm ([5]; Table 2, 3000 RPM): 8 volume %
particle size distribution 250-500 μm ([5]; Table 2, 3000 RPM): 1 volume %
particle size distribution 500-710 μm ([5]; Table 2, 3000 RPM): 0.2 volume %
particle size distribution <75 μm ([5]; Table 2, 3000 RPM): 46.3 volume %
particle size distribution >710 μm ([5]; Table 2, 3000 RPM): 0.1 volume %
Tapped bulk density [1, 7]: 0.30 g/mL
Loose bulk density [3, 7]: 0.22 g/mL
Compressibility [4, 7]: 27%

O=C(O)[C@H]1/C(=C/CO)O[C@@H]2CC(=O)N21 [Example 10, potassium clavulanate]
particle size distribution 75-150 μm ([5]; agitator speed 1000 RPM): 6.5 volume %
particle size distribution 150-250 μm ([5]; agitator speed 1000 RPM): 20.7 volume %
particle size distribution 250-500 μm ([5]; agitator speed 1000 RPM): 60.8 volume %
particle size distribution 500-710 μm ([5]; agitator speed 1000 RPM): 6.1 volume %
particle size distribution <75 μm ([5]; agitator speed 1000 RPM): 5.1 volume %
particle size distribution >710 μm ([5]; agitator speed 1000 RPM): 0.2 volume %
particle size distribution 75-150 μm ([5]; agitator speed 2000 RPM): 2.4 volume %
particle size distribution 150-250 μm ([5]; agitator speed 2000 RPM): 9.5 volume %
particle size distribution 250-500 μm ([5]; agitator speed 2000 RPM): 57.3 volume %
particle size distribution 500-710 μm ([5]; agitator speed 2000 RPM): 27 volume %
particle size distribution <75 μm ([5]; agitator speed 2000 RPM): 1.8 volume %
particle size distribution >710 μm ([5]; agitator speed 2000 RPM): 1.5 volume %
Tapped bulk density ([1]; agitator speed 1000 RPM): 0.44 g/mL
Tapped bulk density ([1]; agitator speed 2000 RPM): 0.47 g/mL
Loose bulk density ([3]; agitator speed 1000 RPM): 0.39 g/mL
Loose bulk density ([3]; agitator speed 2000 RPM): 0.42 g/mL
Compressibility ([4]; agitator speed 1000 RPM): 11%
Compressibility ([4]; agitator speed 2000 RPM): 11%

O=C(O)[C@H]1/C(=C/CO)O[C@@H]2CC(=O)N21 [Example 11, potassium clavulanate]
particle size distribution 75-150 μm ([5]; High flow): 41.2 volume %
particle size distribution 150-250 μm ([5]; High flow): 9.3 volume %
particle size distribution 250-500 μm ([5]; High flow): 0.3 volume %
particle size distribution 500-710 μm ([5]; High flow): 0 volume %
particle size distribution <75 μm ([5]; High flow): 48.7 volume %
particle size distribution >710 μm ([5]; High flow): 0 volume %
particle size distribution 75-150 μm ([5]; Low flow): 50.4 volume %
particle size distribution 150-250 μm ([5]; Low flow): 1.1 volume %
particle size distribution 250-500 μm ([5]; Low flow): 0.6 volume %
particle size distribution 500-710 μm ([5]; Low flow): 0.4 volume %
particle size distribution <75 μm ([5]; Low flow): 48.8 volume %
particle size distribution >710 μm ([5]; Low flow): 0 volume %
Tapped bulk density [1, 8]: 0.36 g/mL
Tapped bulk density [1, 9]: 0.44 g/mL
Loose bulk density [3, 8]: 0.27 g/mL
Loose bulk density [3, 9]: 0.35 g/mL
Compressibility [4, 8]: 25%
Compressibility [4, 9]: 20%

O=C(O)[C@H]1/C(=C/CO)O[C@@H]2CC(=O)N21 [Needles of Potassium clavulanate, potassium clavulanate, reference compound]
Tapped bulk density [1, 6]: 0.36 g/mL
Loose bulk density [3, 6]: 0.18 g/mL
Compressibility [4, 6]: 50%

potassium clavulanate [Example 12]
particle size distribution 75-150 μm ([5]; Nozzle diameter 0.9 mm): 43.3 volume %
particle size distribution 150-250 μm ([5]; Nozzle diameter 0.9 mm): 8 volume %
particle size distribution 250-500 μm ([5]; Nozzle diameter 0.9 mm): 1 volume %
particle size distribution 500-710 μm ([5]; Nozzle diameter 0.9 mm): 0.2 volume %
particle size distribution <75 μm ([5]; Nozzle diameter 0.9 mm): 46.3 volume %
particle size distribution >710 μm ([5]; Nozzle diameter 0.9 mm): 0.1 volume %
particle size distribution 75-150 μm ([5]; Nozzle diameter 1.2 mm): 50.6 volume %
particle size distribution 150-250 μm ([5]; Nozzle diameter 1.2 mm): 31.3 volume %
particle size distribution 250-500 μm ([5]; Nozzle diameter 1.2 mm): 1.9 volume %
particle size distribution 500-710 μm ([5]; Nozzle diameter 1.2 mm): 0 volume %
particle size distribution <75 μm ([5]; Nozzle diameter 1.2 mm): 15.9 volume %
particle size distribution >710 μm ([5]; Nozzle diameter 1.2 mm): 0.3 volume %
Tapped bulk density ([1]; Nozzle diameter 0.9 mm): 0.3 g/mL
Tapped bulk density ([1]; Nozzle diameter 1.2 mm): 0.44 g/mL
Loose bulk density ([3]; Nozzle diameter 0.9 mm): 0.22 g/mL
Loose bulk density ([3]; Nozzle diameter 1.2 mm): 0.36 g/mL

Source: patent US20110045082A1, “AGGLOMERATES BY CRYSTALLISATION” (priority 1999, published 2011)
